These results are taken from patent publication US20260283917A1, “ANTI-WRINKLE AGENT” (SHISEIDO COMPANY, LTD., priority 2023, published 2026).

Data set [1] deals with MMP-1. The data set can be described thus: MMP-1 gene expression analysis by real-time PCR in dermal fibroblasts. It counts as cell-based. Conditions: Homo sapiens, NB1RGB, 48 h, read-out: MMP-1 gene expression level. The protocol: (§1) As the control, a medium not comprising these components was used.
(§2) RNA concentrations were calculated using OD260 and diluted with TE Buffer to adjust the RNA concentrations to 10 μg/mL.
(§3) Reverse transcription of RNA was carried out using SuperScript™ IV VILO™ Master Mix with ezDNase (Cat No. 11766050, Invitrogen, USA). 4 μL of SuperScript™ IV VILO™ Master Mix and 6 μL of Nuclease-free Water were added per well in an 8-tube strip and heated at 25° C. for 10 min, 50° C. for 10 min, and 85° C. for 5 min using real-time PCR (QuantStudio (registered trademark) 3, Applied Biosystems, USA) to synthesize cDNA. 10 μL of TaqMan (registered trademark) Fast Advanced Master Mix (Cat No. 4444557, Applied Biosystems, USA), 1 μL of TaqMan Gene Expression, 7 μL of UltraPure™ Distilled Water (Invitrogen, Cat No. 10977-015, USA), and 2 μL of cDNA were added per well in a PCR plate and sealed. A primer (Hs00899658_ml) for MMP-1 and a primer (Hs00153510_ml) for NEP; and a primer (Hs02786624_g1) for GAPDH as an internal standard gene; were used to carry out real-time qPCR, the threshold cycle (Ct) value of each of the MMP-1 gene and the NEP gene in the medium supplemented with each component was calculated, and then Ct value was corrected with GAPDH to obtain a ΔCt value. Assuming that gene level doubles per cycle, when gene expression level of the control was set at 1, the gene expression level in the medium supplemented with each component was determined. In the analysis of gene expression level, the average value of 24-well plate×3 wells was used for each treatment group.
On the technique in general: Quantitative PCR measures a nucleic acid by following its amplification.

The subject of data set [2] is NEP. The data set can be described thus: NEP gene expression analysis by real-time PCR in dermal fibroblasts. The format is cell-based. The settings on record: Homo sapiens, NB1RGB, 48 h, read-out: NEP gene expression level. Here is the method: as §1, §2, §3
The subject of data set [3] is Type I collagen. The data set can be described thus: Collagen production rate in culture supernatant by sandwich ELISA. It counts as cell-based. Conditions: Homo sapiens, NB1RGB fibroblasts, 48 h, OD405/OD570, no-addition group = 100, read-out: Collagen production rate (%) per cell. Here is the method:
A supernatant of the culture cultured in 2-1 was dispensed into a new 96-well plate and frozen for storage (−80° C.). The collagen production rate in the culture supernatant was measured by sandwich ELISA, and the effect of citronellol on the collagen level was evaluated.
100 μL of culture supernatant diluted 4-fold with PBS(−) was added to a high-binding 96-well plate, and incubated overnight at 4° C. Type I collagen solution (Cat No. 009-001-103, RCK, USA) was used as a standard substance. […] The dye was uniformized within the 96-well plate, and then absorbance (OD405) at 405 nm was measured using a microplate reader.
Setting OD405 of the control group at 100%, the collagen production rate of citronellol was calculated. In addition, the OD405 of the control and citronellol were each divided by OD570 measured in 2-2 to calculate the collagen production rate per cell. Setting the collagen production rate per cell in the control group at 100%, the collagen production rate of citronellol per cell was calculated.
A general note: In an ELISA, binding on a coated surface is turned into a signal by an enzyme label.

Data set [4] relates to human neonatal dermal fibroblast cell line NB1RGB.
Procedure: After 24 h, the medium was removed and replaced with a medium to which citronellol (CAS number: 106-22-9, Wako Pure Chemical Industries, Ltd.) was added so as to have the final concentration shown in Table 3 below, and the cells were further cultured within the CO2 incubator for 48 h. As the control, a medium not comprising citronellol was used.
According to the following method, the effect of citronellol on proliferation of dermal fibroblasts was evaluated.
A 96-well plate from which the medium was removed was washed with 100 μL of PBS(−). 100 μL of 0.5 mg/mL 3-(4,5-dimethylthiazol-2-yl)-2,5-diphenyltetrazolium bromide (MTT, CAS No. 298-93-1, Sigma-Aldrich, USA) solution was then added and incubated within a CO2 incubator for 2 h. After removing the MTT solution and washing with 100 μL of PBS(−), 200 μL of 2-propanol (CAS No. 67-63-0, Wako, Japan) was added to dissolve the insoluble formazan. A dye was uniformly dispersed within the 96-well plate, and then absorbance (OD570) at 570 nm was measured using a microplate reader (SPARK (registered trademark), 10M TECAN, Switzerland). Setting OD570 of the control group at 100%, OD570 of the citronellol-added group, i.e., the effect on cell proliferation, was calculated as the cell-activating effect (%) of citronellol. In the analysis of cell-activating effect, the average value of 96-well plate 9×3 wells was used for each treatment group.

SMILES strings stand for the structures.

Consider `CCCCCOC(=O)CCC` [Amyl butyrate], for which the fold induction at 50 µM in data set [1] was found to be 0.24; in data set [2], 0.43.
As for `CC(C)=CCCC(C)CCO` (stereo not shown) [Citronellol], the fold induction at 50 µM is 0.25 in data set [1] and 0.85 in data set [2]. In addition, the activity at 50 µM in data set [3] turned out to be 102%. Besides, the “cell-activating effect / toxicity (proliferation of fibroblasts, MTT)” value in data set [4] was “no cell-activating effect or toxicity”.
Regarding `CC(C)=CCCC(C)=CCCC(C)=CCO` [Farnesol], the fold induction at 50 µM in data set [1] is 0.22; in data set [2] it was 0.44.
For `c1ccc2[nH]ccc2c1` [Indole], the values for the fold induction at 50 µM in data set [1] and in data set [2] were 0.36 and 0.4, respectively.
